Source: US11839613B2, “Pyrimidine derivatives as PGE2 receptor modulators” (IDORSIA PHARMACEUTICALS LTD, priority 2017, dated 2023)

How the values were obtained:
EP4 = EP4 (Homo sapiens (Human), UniProt P35408); experiment: hEP4 cAMP assay (BT549 breast cancer cells, HTRF cAMP); format: cell-based; conditions: antagonistic activity, PGE2 6 nM
How it was run: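 BT549 breast cancer cells (endogenous EP4) in HBSS/20 mM HEPES/0.2% BSA/2 mM IBMX preincubated 45 min at RT with compound, then stimulated 30 min at RT with 6 nM PGE2 (final). cAMP read by competitive HTRF immunoassay, signal inversely proportional to cAMP.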

EP2 = EP2 (Homo sapiens (Human), UniProt P43116); experiment: hEP2 cAMP assay (SF295 glioblastoma cells, HTRF cAMP); format: cell-based; conditions: antagonistic activity
How it was run: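 PGE2-driven cAMP accumulation was measured by HTRF in SF295 cells, which express endogenous EP2 only. Cells in assay buffer with 2 mM IBMX were pre-incubated 45 min at RT, then incubated 30 min at RT. Detection used competition between cellular cAMP and d2-cAMP for a cryptate anti-cAMP antibody.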

PTGER2 (EP2) = PTGER2 (EP2) (Homo sapiens (Human), UniProt P43116); experiment: hEP2 b-arrestin assay (PathHunter HEK 293 PTGER2 b-arrestin cells); format: cell-based; conditions: antagonistic activity, beta-arrestin assay; read-out: hEP2 b-arr IC50
Description: Plate is pre-incubated 15 minutes at 37° C. Then five microliters of PGE2 (final conc. 5 μM) are transferred into the assay plate. Plate is incubated 120 minutes at 37° C.
(each concentration is measured in duplicate)

PTGER4 (EP4) = PTGER4 (EP4) (Homo sapiens (Human), UniProt P35408); experiment: cell-based
Sequence of PTGER4 (EP4) (P35408 whole entry): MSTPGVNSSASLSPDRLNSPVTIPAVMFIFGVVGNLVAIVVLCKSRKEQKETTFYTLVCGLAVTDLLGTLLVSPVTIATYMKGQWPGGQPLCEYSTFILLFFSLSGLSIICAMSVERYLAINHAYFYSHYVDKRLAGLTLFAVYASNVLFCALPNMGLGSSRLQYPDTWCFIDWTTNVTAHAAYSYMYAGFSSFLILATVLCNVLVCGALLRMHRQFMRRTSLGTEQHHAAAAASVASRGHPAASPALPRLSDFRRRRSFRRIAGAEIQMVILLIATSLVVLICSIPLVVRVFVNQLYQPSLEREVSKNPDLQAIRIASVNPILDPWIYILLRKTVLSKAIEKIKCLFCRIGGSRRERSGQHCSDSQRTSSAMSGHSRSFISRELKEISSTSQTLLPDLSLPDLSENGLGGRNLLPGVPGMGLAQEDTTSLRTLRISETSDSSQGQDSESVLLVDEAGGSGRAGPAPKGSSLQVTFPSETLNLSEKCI

Sequence of EP4 (P35408 whole entry): as above
Sequence of PTGER2 (EP2) (P43116 whole entry): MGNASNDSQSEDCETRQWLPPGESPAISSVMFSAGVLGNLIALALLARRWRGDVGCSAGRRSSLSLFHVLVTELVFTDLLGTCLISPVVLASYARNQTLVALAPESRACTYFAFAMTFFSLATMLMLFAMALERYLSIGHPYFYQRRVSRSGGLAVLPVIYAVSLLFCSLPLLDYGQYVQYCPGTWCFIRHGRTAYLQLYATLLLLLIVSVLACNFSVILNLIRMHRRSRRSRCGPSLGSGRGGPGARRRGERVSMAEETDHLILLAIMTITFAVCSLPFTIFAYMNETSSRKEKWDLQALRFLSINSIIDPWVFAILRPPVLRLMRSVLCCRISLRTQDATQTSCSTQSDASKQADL
Sequence of EP2 (P43116 whole entry): as above

| IC50 (EP4) [µM] | IC50 (EP2) [µM] | IC50 (PTGER2 (EP2)) [µM] | IC50 (PTGER4 (EP4)) [µM] | SMILES |
| --- | --- | --- | --- | --- |
| 0.01 | 0.051 | 0.083 | 0.021 | CCOc1nc(-c2cc(NCCc3ccc4ccccc4c3C)ncn2)sc1C(=O)O [Example 350, 4-Ethoxy-2-{6-[2-(1-methyl-naphthalen-2-yl)-ethylamino]-pyrimidin-4-yl}-thiazole-5-carboxylic acid] |
| 0.167 | 0.236 | 0.475 | 0.079 | CCc1nc(-c2cc(NCCc3ccc4ccccc4c3C)ncn2)sc1C(=O)O [Example 351, 4-Ethyl-2-{6-[2-(1-methyl-naphthalen-2-yl)-ethylamino]-pyrimidin-4-yl}-thiazole-5-carboxylic acid] |
| 0.024 | 0.142 | 0.042 | 0.005 | CCOc1nc(-c2cc(NCCc3ccc4ccccc4c3C)ncn2)sc1-c1noc(=O)[nH]1 [Example 352, 3-(4-Ethoxy-2-{6-[2-(1-methyl-naphthalen-2-yl)-ethylamino]-pyrimidin-4-yl}-thiazol-5-yl)-[1,2,4]oxadiazol-5(4H)-one] |
| 0.056 | 0.027 | 0.041 | 0.032 | CCOc1cc(-c2cc(NCCc3ccc4ccccc4c3C)ncn2)sc1C(=O)NS(N)(=O)=O [Example 354, 3-Ethoxy-5-(6-((2-(1-methylnaphthalen-2-yl)ethyl)amino)pyrimidin-4-yl)-N-sulfamoylthiophene-2-carboxamide] |
| 0.095 | 0.046 | 0.055 | 0.029 | CCOc1cc(-c2cc(NCCc3ccc4ccccc4c3C)ncn2)sc1C(=O)NS(C)(=O)=O [Example 355, N-(3-Ethoxy-5-{6-[2-(1-methyl-naphthalen-2-yl)-ethylamino]-pyrimidin-4-yl}-thiophene-2-carbonyl)-methanesulfonamide] |

Continued, molecule first:

| SMILES | IC50 (EP4) [µM] | IC50 (EP2) [µM] | IC50 (PTGER2 (EP2)) [µM] | IC50 (PTGER4 (EP4)) [µM] |
| --- | --- | --- | --- | --- |
| CCOc1cc(-c2cc(NCCc3cc4cccnc4cc3F)ncn2)sc1-c1noc(=O)[nH]1 [Example 348, 3-(3-Ethoxy-5-{6-[2-(7-fluoro-quinolin-6-yl)-ethylamino]-pyrimidin-4-yl}-thiophen-2-yl)-[1,2,4]oxadiazol-5(4H)-one] | 0.008 | 0.113 | 0.172 | 0.002 |
| CCOc1cc(-c2cc(NCCc3cc4cccnc4cc3F)ncn2)sc1-c1nnn[nH]1 [Example 349, {6-[4-Ethoxy-5-(1H-tetrazol-5-yl)-thiophen-2-yl]-pyrimidin-4-yl}-[2-(7-fluoro-quinolin-6-yl)-ethyl]-amine] | 0.014 | 0.103 | 0.109 | 0.004 |
| CCc1nc(-c2cc(NCCc3ccc4ccccc4c3C)ncn2)sc1-c1noc(=O)[nH]1 [Example 353, 3-(4-Ethyl-2-{6-[2-(1-methyl-naphthalen-2-yl)-ethylamino]-pyrimidin-4-yl}-thiazol-5-yl)-[1,2,4]oxadiazol-5(4H)-one] | 0.109 | 0.115 | 0.237 | 0.009 |
| CCOc1cc(-c2cc(NCCc3cc(Cl)c4sccc4c3)ncn2)ccc1C(=O)O [Example 358, 4-{6-[2-(7-Chloro-benzo[b]thiophen-5-yl)-ethylamino]-pyrimidin-4-yl}-2-ethoxy-benzoic acid] | 0.09 | 0.219 | 0.538 | 0.138 |
| CCOc1cc(-c2cc(NCCc3cc(Cl)c4sccc4c3)ncn2)sc1C(=O)O [Example 359, 5-{6-[2-(7-Chloro-benzo[b]thiophen-5-yl)-ethylamino]-pyrimidin-4-yl}-3-ethoxy-thiophene-2-carboxylic acid] | 0.002 | 0.061 | 0.04 | 0.009 |
| CSc1cc(-c2cc(NCCc3cc(Cl)c4sccc4c3)ncn2)ccc1C(=O)O [Example 360, 4-{6-[2-(7-Chloro-benzo[b]thiophen-5-yl)-ethylamino]-pyrimidin-4-yl}-2-methylsulfanyl-benzoic acid] | 0.044 | 0.183 | 0.137 | 0.069 |
